Reference: PMC3199744, “Preformulation and stability in biological fluids of the retrocyclin RC-101, a potential anti-HIV topical microbicide” (AIDS Research and Therapy, 2011)
Read-outs that look alike come from different tables or passages of the source.

Columns and labels:
[1] = RC-101 solution / film control in water, detection by LC-MS/MS; type: physicochemical; conditions: 1:1 with water, 37°C, nanoLC-SRM MS, qualitative
Method: RC-101 100 μg/mL solutions were prepared by dissolving RC-101 in Milli Q water. RC-101 and placebo films were prepared by precasting a polymeric film solution into an 8-well-plate. The polymeric film solution was prepared as previously described by adding Milli Q water, PVA, and hydroxypropyl methyl cellulose (HPMC). The solution was then heated at 95°C for 20 minutes for complete dissolution of the polymers. After cooling, glycerin and RC-101 were added. Film solution (2.4 g) containing RC-101 was poured into each well of the 8-well plate. The plate was placed into a vacuum oven at 30 ± 2°C for 20 ± 4 h. All dried films were removed from the plates and stored at room temperature in PET/Aluminum foil pouches (Amcor Flexibles Healthcare Inc, Mundelein, IL) until further analysis. Placebo films were prepared in the same way without the addition of RC-101. […] For analytical purposes, films were dissolved in 1 mL of Milli Q water before addition to HVF.
(§1) The HVF from the Instead Softcup® was removed by centrifugation of the conical tube for 10 min at 5,000 rpm. […] HVF was then removed from the cup and the pH of each HVF sample was measured with Fisher Alkacid pH filter strips (Fisher Scientific). All samples collected on a specific day were pooled to be used for the research studies. If the pH of the individual samples was higher than 5, the sample was not included in the pool but it was stored at -80°C for separate analysis. If the sample contained blood, it was immediately discarded. Samples were prepared as described in Table 1. […] Because of its high viscosity, HVF was measured by weight and not by volume. All solutions were prepared fresh and incubated with HVF (or water) at 37°C for specific periods of time (0, 2, 6, 12, 24, 48, and 72 h), unless specified otherwise. At each time point, the samples were centrifuged at 10,000 rpm for 10 min to separate the supernatant from the epithelial cells as described in the cell processing section. Both parts (supernatant and cells) were stored at -80 ± C until analyzed by LC-MS/MS. To evaluate the influence of freezing the fluid prior to the analysis, the last pool of HVF was divided into two samples: one used fresh (at the time of collection), and the other one stored at -80°C for a 3-month period. After that time period, HVF was thawed and processed for blank and RC-101 solution only, as described in Table 1. HVF samples collected with a high pH value indicative of BV were stored at -80°C as previously mentioned. After confirmation of BV on those fluid samples by Gram stain score, the fluid samples (HVF BV^+) were thawed, pooled, and processed as described in Table 1.
(§2) At each time point, the sample was removed from the incubation chamber and centrifuged for 10 min at 10,000 rpm, at 4 ± C to separate the supernatant from cell pellet. Supernatant (100 μL) was added to microcentrifuge filters Ultracel YM-10 Microcon MWCO 10,000 (Millipore Corporation, Bedford, MA), which were pre-washed with Milli Q water to eliminate any trace of propylene glycol from the filters. Samples were centrifuged twice for 15 min at 8,500 rpm, at 4 ± C. The filtrate was collected and frozen at -80 ± C until further analysis. A solution of 3 M urea was added to the cell pellet (1:1 w/w) obtained from the first centrifugation, to lyse the cells. This mixture was vortexed three times for 30 sec, and then centrifuged for 10 min at 10,000 rpm, at 4 ± C. The supernatant obtained from the cell lysate was then added to microcentrifuge filters Ultracel YM-10 Microcon MWCO 10,000 pre-washed with Milli Q water. Samples were centrifuged twice for 15 min at 8,500 rpm, at 4 ± C. The filtrate was collected and frozen at -80 ± C until analysis.

[2] = for detection of RC-101 by LC-MS/MS: frozen HVF (-80°C, 3 months) 1:1, 37°C, nanoLC-SRM MS, qualitative
Method: as §1
as §2, with “until analysis. […] Samples were thawed and added to PepCleanTM C-18 spin columns (Pierce Biotechnology Inc., Rockford, IL) for desalting, after column conditioning with acetonitrile:water (50:50) and equilibration with 0.1% trifluoroacetic acid. The column was washed three times with 0.1% trifluoroacetic acid, and RC-101 was eluted with acetonitrile:water (60:40) in 0.1% trifluoroacetic acid. Samples were dried in a speed vacuum CentriVap concentrator (LabConco Corp., Kansas City, MO) and resuspended with 200 μL of Milli Q water for LC-MS/MS analysis. Each sample described in Table 1 originated two sets of samples: one labeled as supernatant and the second one labeled as cells.” for “until analysis.”
Integrated electrospray ionization (ESI)-capillary reversed-phase columns (75 μm inner diameter × 360 μm outer diameter × 100 mm length) packed with 5 μm 300 Å pore size Jupiter C18 reversed-phase stationary phase (Phenomenex) were prepared, as previously described. Solvent flow was supplied by a nanoflow HPLC system (Ultimate 3000, Dionex Corporation, Sunnyvale, CA).

[3] = Oxidation of RC-101 by hydrogen peroxide, HPLC; conditions: 500 μg/mL
Method: For all pre-formulation studies described below, triplicate solutions of RC-101 (500 μg/mL) were prepared in either water or aqueous buffer solution. Thermal degradation studies were conducted at 25, 37, and 65°C for a minimum period of 1 week. The effect of pH on the stability of RC-101 was evaluated over the pH range from 3 to 12 using 10 mM phosphate buffer solutions, at low (50 mmol/kg) and high (500 mmol/kg) ionic strength. Oxidation of RC-101 was evaluated by exposing a solution of RC-101 to hydrogen peroxide (H2O2) at concentrations of 3.0, 0.08, and 0.002% (v/v). The high H2O2 concentration (3.0%) was selected as a forced degradation concentration. […] Protection against oxidation was investigated by the addition of antioxidants commonly used in pharmaceutical products. The antioxidants used in this study were: methionine (95.2 μg/mL or 250 μg/mL), cysteine (95.2 μg/mL), glutathione (90.9 μg/mL), vitamin E TPGS (90.9 μg/mL), ascorbic acid (1.0 mg/mL), sodium ascorbate (1.0 mg/mL), and EDTA (1.0 μg/mL).
RC-101 concentration after exposure to preformulation conditions was analyzed by HPLC as previously described [11]. Briefly, the HPLC system (Waters Corporation, Milford, MA) was equipped with an autoinjector model 717, a quaternary pump model 600, and an ultraviolet (UV) detector model 2487 set up at 215 nm. Separation of RC-101 from degradant products was achieved using a Phenomenex Jupiter 5 μC5 300 Å (4.6 × 250 mm) column (Phenomenex, Torrance, CA) protected by a Widepore C5 (4 × 3.0 mm) guard cartridge (Phenomenex). The gradient consisted of mobile phase A (0.1% TFA in water (v/v)), and mobile phase B (0.07% TFA in acetonitrile (v/v)) pumped at a flow rate of 1.0 mL/min. […]
HPLC data obtained from the preformulation studies were expressed as the average percentage of the peak area from time 0 ± standard deviation, n = 3. Results were analyzed by one-way analysis of variance (ANOVA) with multiple comparisons of individual time points by using post hoc Bonferroni correction to detect significant differences under different conditions. […]

**Q.** With “GICRCICGKGICRCICGR (bicyclic or more) [RC-101]” as the sequence, how does the “detection of RC-101 by LC-MS/MS” value ([1]; 0 h) read?
**A.** The value was “+”.

**Q.** And the “detection of RC-101 by LC-MS/MS” value ([1]; 2 h)?
**A.** The value was “+”.

**Q.** And the “detection of RC-101 by LC-MS/MS” value ([1]; 6 h)?
**A.** Its value is “+”.

**Q.** What about the “detection of RC-101 by LC-MS/MS” value ([1]; 12 h) of the same sequence?
**A.** The value was “+”.

**Q.** And the “detection of RC-101 by LC-MS/MS” value ([1]; 24 h)?
**A.** The value was “+”.

**Q.** And the “detection of RC-101 by LC-MS/MS” value ([1]; 48 h)?
**A.** Its value is “+”.

**Q.** What about the “detection of RC-101 by LC-MS/MS” value ([1]; 72 h) of the same sequence?
**A.** The value was “+”.

**Q.** What about the “difference in the peptide after incubation with frozen fluid versus fresh HVF” value ([2]; HVF stored at -80°C for 3 months, thawed, 1:1 with RC-101 100 μg/mL solution, 37°C, LC-MS/MS not quantitative) of the same sequence?
**A.** Its value is “No detectable differences”.

**Q.** What about the “detection of RC-101 by LC-MS/MS” value ([2]; 0 h) of the same sequence?
**A.** Its value is “+”.

**Q.** What about the “detection of RC-101 by LC-MS/MS” value ([2]; 2 h) of the same sequence?
**A.** The value was “+”.

**Q.** What about the “detection of RC-101 by LC-MS/MS” value ([2]; 6 h) of the same sequence?
**A.** Its value is “+”.

**Q.** And the “detection of RC-101 by LC-MS/MS” value ([2]; 12 h)?
**A.** The value was “+”.

**Q.** What about the “detection of RC-101 by LC-MS/MS” value ([2]; 24 h) of the same sequence?
**A.** The value was “+”.

**Q.** What about the “detection of RC-101 by LC-MS/MS” value ([2]; 48 h) of the same sequence?
**A.** Its value is “+”.

**Q.** What about the “degradation rate compared with 3.0% H2O2” value ([3]; 0.002% and 0.08% H2O2 (biologically relevant), HPLC) of the same sequence?
**A.** Its value is “slower”.

**Q.** And the “loss of RC-101” value ([3]; 3.0% H2O2 (forced degradation), 4 h, HPLC-UV, n = 3)?
**A.** Its value is 20%.
